Assay results from patent US20210230178A1, “TRIOXACARCIN ANALOGS AND DIMERS AS POTENT ANTICANCER AGENTS” (William Marsh Rice University, priority 2017, published 2021).
Where two headings read alike, the source gives them in different places. Square brackets hold non-standard residues; d marks the D form. Peptide text beside a SMILES is read from it. * marks the point of attachment. Dolaproine = CO[C@@H]([C@@H]1CCCN1)[C@@H](C)C(=O)O; Dil = CC[C@H](C)[C@H](NC)[C@@H](CC(=O)O)OC; X1 = C[C@@H](N*)[C@@H](O)c1ccccc1; NMeV = CN[C@H](C(=O)O)C(C)C

Assays:
[1] = tested on: HEK 293T (human embryonic kidney cancer cell line); settings: for IC50: read-out: IC50 HEK 293T
[2] = tested on: MES SA (human uterine sarcoma); settings: for IC50: read-out: IC50 MES SA
[3] = tested on: MES SA DX (human uterine sarcoma cell line with marked multidrug resistance); settings: for IC50: read-out: IC50 MES SA DX
[4] = tested on: MES SA (human uterine sarcoma); experiment: cells; settings: 72 h, read-out: IC50 MES SA
[5] = tested on: MES SA DX (human uterine sarcoma cell line with marked multidrug resistance); experiment: cells; settings: 72 h, read-out: IC50 MES SA DX
[6] = tested on: HEK 293T (human embryonic kidney cancer cell line); experiment: cells; settings: 72 h, read-out: IC50 HEK 293T

Molecule | IC50 [1] | IC50 [2] | IC50 [3] | IC50 [4] | cytotoxic potency against HEK 293T, in words [1] | cytotoxic potency against MES SA, in words [2] | cytotoxic potency against MES SA DX, in words [3] | IC50 [5] | IC50 [6]
COc1c2c(c(O)c3c4c(c(C)cc13)[C@@H]1O[C@@]3(C(OC)OC)O[C@@H]1[C@@](O[C@H]1C[C@@H](O)[C@@](O)(C(C)=O)[C@H](C)O1)(O4)[C@@]31CO1)C(=O)[C@@H](O)C[C@@H]2O[C@H]1C[C@@](C)(O)[C@H](O)[C@H](C)O1 [Trioxacarcin D, reference compound] | 8.02 nM | 11.1 nM | > 1000 nM | – | – | – | – | – | –
COc1c2c(c(O)c3c4c(c(C)cc13)C1OC3(C5OCCCO5)OC1[C@@](OCC=CCO[C@@]15Oc6c(c(C)cc7c(OC)c8c(c(O)c67)C(=O)CCC8)C6OC(C7OCCCO7)(OC61)[C@]51CO1)(O4)[C@@]31CO1)C(=O)CCC2 (stereo partly drawn) [Trx25, (1S,2S,3aS,4R,13aR,1′″S,2′″S,3a′″S,4′R,13a′″R)-13a,13a′-[(2E)-but-2-ene-1,4-diylbis(oxy)]bis[2-(1,3-dioxan-2-yl)-12-hydroxy-7-methoxy-5-methyl-3a,4,8,9,10,13a-hexahydro-11H-spiro[2,4-epoxyfuro[3,2-b]naphtho[2,3-h]chromene-1,2′-oxiran]-11-one]] | 105 nM | 235 nM | 429 nM | – | – | – | – | – | –
CC[C@H](C)[C@@H]([C@@H](CC(=O)N1CCC[C@H]1[C@H](OC)[C@@H](C)C(=O)N[C@H](C)[C@@H](O)c1ccccc1)OC)N(C)C(=O)[C@@H](NC(=O)[C@@H](NC)C(C)C)C(C)C [MMAE, monomethyl auristatin E, reference compound] (H-[NMeV]V[Dil][Dolaproine]-X1) | 0.08 nM | 0.06 nM | > 70 nM | – | – | – | – | – | –
COc1c2c(c(OC(C)=O)c3c4c(c(C)cc13)[C@H]1O[C@]3(C5OCCCO5)O[C@@H]1[C@@](OC)(O4)[C@@]31CO1)C(=O)CCC2 [Trx27, (1S,2S,3aS,4R,13aR)-2-(1,3-Dioxan-2-yl)-7,13a-dimethoxy-5-methyl-11-oxo-3a,8,9,10,11,13a-hexahydro-4H-spiro[2,4-epoxyfuro[3,2-b]naphtho[2,3-h]chromene-1,2′-oxiran]-12-yl acetate] | – | – | – | 2.15 nM | no significant loss of potency | no significant loss of potency | no significant loss of potency | 1.43 nM | 1.24 nM
COc1c2c(c(OC(C)=O)c3c4c(c(C)cc13)[C@H]1O[C@]3(C5OCCCO5)O[C@@H]1[C@@](OC(C)=O)(O4)[C@@]31CO1)C(=O)CCC2 [Trx26, (1S,2S,3aS,4R,13aS)-2-(1,3-Dioxan-2-yl)-7-methoxy-5-methyl-11-oxo-3a,4,8,9,10,11-hexahydro-13aH-spiro[2,4-epoxyfuro[3,2-b]naphtho[2,3-h]chromene-1,2′-oxirane]-12,13a-diyl diacetate] | – | – | – | 67.4 nM | no significant loss of potency | no significant loss of potency | no significant loss of potency | 60.3 nM | 11.6 nM
(4R,5S,6R,10S)-8-{[(1S,2R)-2-(1,3-Dioxan-2-yl)-12-hydroxy-7-methoxy-5-methyl-11-oxo-3a,4,8,9,10,11-hexahydro-13aH-spiro[2,4-epoxyfuro[3,2-b]naphtho[2,3-h]chromene-1,2′-oxiran]-13a-yl]oxy}-4,6-dimethyl-2-oxo-1,3,7-trioxaspiro[4.5]dec-10-ylacetate [Trx22] | 4.2 nM | 5.74 nM | 56.9 nM | – | – | – | – | – | –
COc1c2c(c(O)c3c4c(c(C)cc13)C1OC3(C5OCCCO5)OC1[C@@](OCC=CCO[C@@]15Oc6c(c(C)cc7c(OC)c8c(c(O)c67)C(=O)CCC8)C6OC(C7OCCCO7)(OC61)[C@]51CO1)(O4)[C@@]31CO1)C(=O)CCC2 (stereo partly drawn) [Trx24, (1S,2S,3aS,4R,13aR,1′″S,2′″S,3a′″S,4′″R,13a′″R)-13a,13a′-[(2Z)-but-2-ene-1,4-diylbis(oxy)]bis[2-(1,3-dioxan-2-yl)-12-hydroxy-7-methoxy-5-methyl-3a,4,8,9,10,13a-hexahydro-11H-spiro[2,4-epoxyfuro[3,2-b]naphtho[2,3-h]chromene-1,2′-oxiran]-11-one]] | – | > 1000 nM | > 1000 nM | – | – | – | – | – | 115 nM
COc1c2c(c(O)c3c4c(c(C)cc13)[C@@H]1O[C@@]3(C(OC)OC)O[C@@H]1[C@@](O[C@H]1C[C@@H](O)[C@@](O)(C(C)=O)[C@H](C)O1)(O4)[C@@]31CO1)C(=O)[C@@H](O)C[C@@H]2O[C@H]1C[C@@](C)(O)[C@H](OC(C)=O)[C@H](C)O1 [Trioxacarcin A] | 0.702 nM | 0.74 nM | 204 nM | – | – | – | – | – | –
COc1c2c(c(O)c3c4c(c(C)cc13)C1OC3(C5OCCCO5)OC1[C@@](OC)(O4)[C@@]31CO1)C(=O)CCC2 (stereo partly drawn) [Trx13] | 0.4 nM | 0.56 nM | 0.42 nM | 0.53 nM | – | – | – | 0.38 nM | 0.5 nM
CO[C@@]12Oc3c4c(cc(C)c3[C@H]3O[C@](C5OCCCO5)(O[C@@H]31)[C@]21CO1)C(=O)c1ccc(Cl)c(OC(C)=O)c1C4=O [Trx33, (1S,2S,3aS,4R,13aR)-10-Chloro-2-(1,3-dioxan-2-yl)-13a-methoxy-5-methyl-7,12-dioxo-3a,7,12,13a-tetrahydro-4H-spiro[2,4-epoxyfuro[3,2-b]naphtho[2,3-h]chromene-1,2′-oxiran]-11-yl acetate] | – | – | – | 54.3 nM | – | – | – | 33.2 nM | 38.8 nM
